Assay results reported in patent US20230405134A1, “NOVEL PROTAC CHIMERIC COMPOUND, AND PHARMACEUTICAL COMPOSITION COMPRISING SAME FOR PREVENTING, AMELIORATING, OR TREATING DISEASES THROUGH TARGET PROTEIN DEGRADATION” (POSTECH RESEARCH AND BUSINESS DEVELOPMENT FOUNDATION, priority 2020, published 2023).
Where a SMILES comes first, the peptide text is derived from it. Bridges are numbered along the chain shown (N, C = ends). [ ]: non-standard residue; d: D form. Cha = N[C@@H](CC1CCCCC1)C(=O)O; S5 = C=CCCC[C@](C)(N)C(=O)O

T1: UBR box (residues 113-194) in the UBR1 E3 ubiquitin ligase of S. cerevisiae (S. cerevisiae, UniProt P19812 113-194)
T1 construct: range 113-194; Expressed and purified as in Nat; Struct; Mol. Biol. 2010, 17, 1175-1181
T1 sequence (looked up): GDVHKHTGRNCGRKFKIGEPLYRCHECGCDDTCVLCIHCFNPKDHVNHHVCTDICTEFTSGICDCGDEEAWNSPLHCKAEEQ

B1: RLAA tetrapeptide (peptide)
peptide: RLAA
notes: also called RLAA peptide; N-degron tetrapeptide

What was measured:
[1] = tested on: CSF-1; experiment: CSF-1 mRNA level by RT-qPCR in MDA-MB-231 cells; format: cell-based, human; conditions: 12 hours
Description: (§1) The pharmacological effects on SRC-1 dependent signal transmission were explored using the previously discovered SRC-1 degrading substance. The SRC-1 is overexpressed in various cancers and plays a pivotal role in increasing cell migration and invasion by regulating the expression of related genes. Therefore, when treated with ND1-YL2, an SRC-1 degrading substance, the expression of genes stimulated by SRC-1, such as colony stimulating factor-1 (CSF-1), a gene encoding the cytokine CSF-1 that induces cell differentiation and migration, will be suppressed. To confirm this, MDA-MB-231 cells were treated with DMSO and various concentrations of ND1-YL2, YL2 or N-degron tetrapeptide for 12 hours, and the mRNA level of CSF-1 was normalized to 18S level. Confirmation was made using quantitative real-time polymerase chain reaction (RT-qPCR). MDA-MB-231 cells were seeded at 2×10^5 cells per well. After 24 hours, compounds (YL2, RLAA or ND1-YL2) were treated in Opti-MEM medium for 12 hours. Subsequently, general mRNA isolation was performed using TRI reagent (Takara), and total mRNA was isolated from the cells. The absorbance of total mRNA was measured with a Tecan F200 Nanophotometer, and reverse transcription was performed using AccuPower RocketScript Cycle RT PreMix (Bioneer). Quantitative real-time PCR for CSF-1, E-Cadherin and 18S was performed using a StepOnePlus Real-Time PCR System and SYBR Green mix (Applied Biosystems) according to the manufacturer's manual.

[2] = biological target: SRC-1 (Homo sapiens, UniProt Q15788); experiment: SRC-1 expression level in MDA-MB-231 cells by Western blot; format: cell-based; parameters: endogenous in cells; host or cells: MDA-MB-231; conditions: 20 μM, 12 hours
[3] = tested on: MDA-MB-231 cells; experiment: Gap closure migration assay; format: cell-based, human; conditions: 20 μM, 72 hours
Description: Based on the results that the SRC-1 degradation effectively affects the transcription mediated by SRC-1 (FIGS. 18A and 18B), it was predicted that ND1-YL2 would exert an inhibitory effect on downstream signaling pathways such as increased cancer cell migration and invasion. To test this, we first performed a gap closure migration assay using an invasive MDA-MB-231 cell line. MDA-MB-231 cells (70 μL of 4×10^5 cells/mL) were seeded in culture insert 2 wells (ibidi, 80209) pre-inserted into p-dishes (ibidi) under the conditions of 37° C. and 5% CO2. The culture insert 2 wells was gently removed with sterile tweezers. The cells were treated with DMSO, YL2 (20 […]), RLAA (20 μM) or ND1-YL2 (20 μM) in Opti-MEM medium for 72 hours. Images were obtained by a camera (Olympus) attached to an optical microscope. The cells were grown in the culture insert wells, and the inserts were removed to create intercellular gaps inside the wells. Subsequently, after treated with DMSO, YL2, RLAA peptide or ND1-YL2, the cells were cultured for 72 hours and the degree of cell migration was observed. The cell migration was quantified by analyzing the images of cells filling the gap.

[4] = tested on: MDA-MB-231 cells; experiment: Matrigel invasion assay; format: cell-based, human; conditions: 24 hours; ND1-YL2 various concentrations, YL2 and RLAA 20 μM
Description: The inhibition of cell migration may be due to the inhibitory effect of ND1-YL2 on cell growth. In order to exclude this possibility, the invasive ability of cells treated with ND1-YL2 was confirmed. A Corning Matrigel insert (Corning) was placed in a 24-well plate. After hydrating the Matrigel insert with an FBS-free DMEM medium for 2 hours in a CO2 incubator, MDA-MB-231 cells were cultured in the Matrigel insert (4×10^4 cells/insert) with 125 μL of Opti-MEM medium. Another 125 μl of compound containing Opti-MEM medium was added to the insert. The lower chamber was filled with 500 μL of DMEM medium containing 10% FBS. The Matrigel chamber was cultured for 24 hours under the conditions of 37° C. and 5% CO2. The cell culture media of the upper and lower chambers were removed and washed three times with cold DPBS. Non-invasive cells were then removed with a cotton swab. The bottom of the chamber was fixed with 4% formaldehyde for 10 minutes at room temperature, and stained with Hoechst 33342 (5 μg/mL) for 5 minutes in a CO2 incubator. After washed with DPBS, images of infiltrated cells were obtained by a fluorescence microscope. The percentage of the invasive cells was calculated using the product manual. MDA-MB-231 cells were treated with various concentrations of ND1-YL2, N-degron (20 μM) or YL2 (20 μM). After 24 hours, images of the invaded cells were obtained by a fluorescence microscope, and the number of invaded cells was quantified through the images. […] The inhibitory activity of ND1-YL2 on cell migration and invasion is in good agreement with previous SRC-1 knockdown experiments.

[5] = tested on: E-cadherin; experiment: E-cadherin mRNA level by RT-qPCR in MDA-MB-231 cells; format: cell-based, human; conditions: 12 hours
Description: as §1
In addition, the effect of the ND1-YL2 on the expression of E-cadherin, a tumor suppressor gene that plays an important role in cell-cell adhesion, was tested. Since SRC-1 protein is known to suppress the E-cadherin expression, the ND1-YL2 will upregulate the E-cadherin by degrading SRC-1.

[6] = biological target: T1, UBR box (residues 113-194) in the UBR1 …; experiment: competitive fluorescence polarization on the UBR box (as the sentence implies; the origin of the value is not stated)

Chain of SRC-1 (Q15788 whole entry): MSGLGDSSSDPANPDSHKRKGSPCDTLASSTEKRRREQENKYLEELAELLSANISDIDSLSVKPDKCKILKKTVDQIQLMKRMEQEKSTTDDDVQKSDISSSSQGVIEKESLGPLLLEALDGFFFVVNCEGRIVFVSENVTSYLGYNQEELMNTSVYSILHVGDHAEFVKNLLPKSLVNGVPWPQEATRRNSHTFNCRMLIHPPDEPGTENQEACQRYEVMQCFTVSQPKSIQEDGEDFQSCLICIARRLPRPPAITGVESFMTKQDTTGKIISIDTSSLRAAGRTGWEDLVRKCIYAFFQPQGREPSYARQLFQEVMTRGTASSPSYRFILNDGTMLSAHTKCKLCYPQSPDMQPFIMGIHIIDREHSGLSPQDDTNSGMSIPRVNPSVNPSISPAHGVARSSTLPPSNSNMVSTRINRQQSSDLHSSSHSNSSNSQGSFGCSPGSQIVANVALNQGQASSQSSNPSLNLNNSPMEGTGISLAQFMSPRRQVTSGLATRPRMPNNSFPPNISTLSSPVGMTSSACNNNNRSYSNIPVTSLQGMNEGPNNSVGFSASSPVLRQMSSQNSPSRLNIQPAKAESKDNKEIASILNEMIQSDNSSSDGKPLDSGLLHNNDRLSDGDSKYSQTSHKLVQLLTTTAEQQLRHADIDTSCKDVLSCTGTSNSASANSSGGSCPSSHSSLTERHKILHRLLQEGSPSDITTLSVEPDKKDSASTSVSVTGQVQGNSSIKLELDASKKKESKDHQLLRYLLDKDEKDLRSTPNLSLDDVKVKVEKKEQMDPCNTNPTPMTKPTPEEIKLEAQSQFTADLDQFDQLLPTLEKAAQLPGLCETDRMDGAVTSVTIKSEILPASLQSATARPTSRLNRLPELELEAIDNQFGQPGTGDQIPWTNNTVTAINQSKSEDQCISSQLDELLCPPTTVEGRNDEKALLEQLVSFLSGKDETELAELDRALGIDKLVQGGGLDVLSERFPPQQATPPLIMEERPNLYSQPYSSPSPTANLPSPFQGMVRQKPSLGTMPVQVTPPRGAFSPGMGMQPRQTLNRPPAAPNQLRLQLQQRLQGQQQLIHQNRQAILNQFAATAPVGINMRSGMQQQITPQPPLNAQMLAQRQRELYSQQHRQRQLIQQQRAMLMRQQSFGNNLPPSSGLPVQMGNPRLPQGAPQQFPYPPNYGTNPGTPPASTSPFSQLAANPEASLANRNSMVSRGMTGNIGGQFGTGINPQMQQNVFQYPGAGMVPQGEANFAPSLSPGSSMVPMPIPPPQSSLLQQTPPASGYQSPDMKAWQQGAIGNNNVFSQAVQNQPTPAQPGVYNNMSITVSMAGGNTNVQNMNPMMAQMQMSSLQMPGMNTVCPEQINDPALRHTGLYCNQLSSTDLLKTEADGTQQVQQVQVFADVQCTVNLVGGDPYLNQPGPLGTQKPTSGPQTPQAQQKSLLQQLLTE

Molecule | Effect on CSF-1 expression (mRNA normalized to 18S) [1] | SRC-1 degradation, single agents compared [2] | Existing gaps maintained (cell migration) [3] | Effect on cell invasion [4] | Effect on E-cadherin expression (mRNA) [5] | Ki [6] [µM]
CC(C)C[C@H](NC(=O)[C@@H](N)CCCNC(=N)N)C(=O)N[C@@H](C)C(=O)N[C@@H](C)C(N)=O [RLAA] (H-RLAA-NH2) | did not significantly affect | Neither YL2 nor RLAA tetrapeptide per se had any effect | gaps were completely filled | no significant effect | no effect | 
CC(C)C[C@@H]1NC(=O)[C@H](CCCCN)NC(=O)[C@@](C)(NC(=O)[C@H](CC(C)C)NC(=O)[C@H](CC(=O)O)NC(=O)[C@H](CCC(N)=O)NC(=O)[C@H](CCC(=O)O)NC(=O)[C@@H](NC(=O)[C@@H]2CCCN2C(=O)[C@@H]2CCCN2C(=O)[C@H](CC(C)C)NC(=O)[C@@H](N)CC(C)C)[C@@H](C)O)CCC/C=C\CCC[C@@](C)(C(=O)N[C@@H](Cc2ccc(O)cc2)C(N)=O)NC(=O)[C@H](CC2CCCCC2)NC1=O [YL2] (H-LLPPTEQDL[S5]KL[Cha][S5]Y-NH2; staple (Z) 10-14; N-terminus and C-terminus assumed) | did not significantly affect | Neither YL2 nor RLAA tetrapeptide per se had any effect | gaps were completely filled | no significant effect | no effect | 
B1 |  |  |  |  |  | 4.2
